According to publication PMC6815936, “A Pan-Cyclophilin Inhibitor, CRV431, Decreases Fibrosis and Tumor Development in Chronic Liver Disease Models” (The Journal of Pharmacology and Experimental Therapeutics, 2019):
Square brackets hold non-standard residues; d marks the D form. Peptide text beside a SMILES is read from it. NMeThr(4R-Me,4-(CH2)6NHAc) = CN[C@H](C(=O)O)[C@H](O)[C@H](C)CCCCCCNC(C)=O; NMeL = CN[C@@H](CC(C)C)C(=O)O; NMeV = CN[C@H](C(=O)O)C(C)C; dNMeA = CN[C@H](C)C(=O)O; Abu = CC[C@H](N)C(=O)O

How the values were obtained:
recombinant Cyp A (PPIA) = biological target: T1, recombinant Cyp A (PPIA) (Homo sapiens, UniProt P62937); experiment: Cyclophilin isomerase assay, Cyp A; type: biochemical
T1 construct: purchased R&D Systems 3589-CAB
T1 sequence (P62937 whole entry): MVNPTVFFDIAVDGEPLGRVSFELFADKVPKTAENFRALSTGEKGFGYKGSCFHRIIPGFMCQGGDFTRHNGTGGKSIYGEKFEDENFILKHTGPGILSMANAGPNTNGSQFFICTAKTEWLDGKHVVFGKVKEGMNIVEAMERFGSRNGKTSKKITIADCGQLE
Experimental: (§1) Cyclophilin isomerase activity was measured with an assay described by [Kofron et al. (1991)] with adaptations to 96-well plates. In this assay cyclophilins catalyze cis-to-trans isomerization of a proline peptide bond in a nitroanalide-coupled peptide substrate followed by cleavage of the trans-conformer peptide by α-chymotrypsin, release of the p-nitroaniline chromogen, and quantitation of p-nitroaniline by absorbance at 410 nm. All solutions were pre-equilibrated, and all assays were conducted at 4°C. Plates were preloaded with 5 µl peptide solution consisting of N-succinyl-alanine-alanine-proline-phenylalanine-p-nitroanilide (S7388; Sigma-Aldrich) and 400 mM lithium chloride (310468; Sigma-Aldrich) in anhydrous trifluoroethanol (T63002; Sigma-Aldrich). […] Absorbance measurements with a BMG Polarstar Galaxy plate reader were begun immediately and made at 6-second intervals for 6 minutes. Reaction curves were represented by increases in optical density 410 nm as a function of reaction time. For Ki determinations, initial reaction velocities were obtained from the reaction curves and plotted relative to substrate concentration, and the curves were fitted to the enzyme competitive inhibition model (GraphPad Prism) to derive Ki, maximum velocity (Vmax), and Michaelis constant values. For IC50 determinations, the reaction curves were fitted to one-phase exponential association regressions to obtain first-order rate constants.

recombinant Cyp B (PPIB) = biological target: T2, recombinant Cyp B (PPIB) (Homo sapiens, UniProt P23284); experiment: Cyclophilin isomerase assay, Cyp B; type: biochemical
T2 construct: purchased Cedarlane Laboratories CLENZ313
T2 sequence (P23284 34-216): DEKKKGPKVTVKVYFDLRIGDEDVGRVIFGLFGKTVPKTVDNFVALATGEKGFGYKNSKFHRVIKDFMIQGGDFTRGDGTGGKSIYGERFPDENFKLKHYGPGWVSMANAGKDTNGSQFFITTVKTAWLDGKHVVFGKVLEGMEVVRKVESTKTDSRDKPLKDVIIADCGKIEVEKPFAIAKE
Experimental: as §1, with “For IC50 determinations, the reaction curves were fitted to one-phase exponential association regressions to obtain first-order rate constants.” left out

recombinant Cyp D (PPIF) = biological target: T3, recombinant Cyp D (PPIF) (Homo sapiens, UniProt P30405); experiment: Cyclophilin isomerase assay, Cyp D; type: biochemical
T3 construct: purchased Cedarlane Laboratories CLENZ385
T3 sequence (P30405 30-207): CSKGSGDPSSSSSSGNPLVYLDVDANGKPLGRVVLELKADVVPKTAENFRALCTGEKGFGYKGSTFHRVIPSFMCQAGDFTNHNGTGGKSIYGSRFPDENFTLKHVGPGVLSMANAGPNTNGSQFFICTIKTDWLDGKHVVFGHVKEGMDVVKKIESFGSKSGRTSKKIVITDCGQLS
Experimental: as §1, with “For IC50 determinations, the reaction curves were fitted to one-phase exponential association regressions to obtain first-order rate constants.” left out

[1] = biological target: T4, recombinant cyclophilin G (PPIG) (Homo sapiens, UniProt Q13427); experiment: Cyclophilin isomerase assay, cyclophilin G; type: biochemical
T4 construct: purchased Cedarlane Laboratories CLENZ463
T4 sequence (Q13427 whole entry): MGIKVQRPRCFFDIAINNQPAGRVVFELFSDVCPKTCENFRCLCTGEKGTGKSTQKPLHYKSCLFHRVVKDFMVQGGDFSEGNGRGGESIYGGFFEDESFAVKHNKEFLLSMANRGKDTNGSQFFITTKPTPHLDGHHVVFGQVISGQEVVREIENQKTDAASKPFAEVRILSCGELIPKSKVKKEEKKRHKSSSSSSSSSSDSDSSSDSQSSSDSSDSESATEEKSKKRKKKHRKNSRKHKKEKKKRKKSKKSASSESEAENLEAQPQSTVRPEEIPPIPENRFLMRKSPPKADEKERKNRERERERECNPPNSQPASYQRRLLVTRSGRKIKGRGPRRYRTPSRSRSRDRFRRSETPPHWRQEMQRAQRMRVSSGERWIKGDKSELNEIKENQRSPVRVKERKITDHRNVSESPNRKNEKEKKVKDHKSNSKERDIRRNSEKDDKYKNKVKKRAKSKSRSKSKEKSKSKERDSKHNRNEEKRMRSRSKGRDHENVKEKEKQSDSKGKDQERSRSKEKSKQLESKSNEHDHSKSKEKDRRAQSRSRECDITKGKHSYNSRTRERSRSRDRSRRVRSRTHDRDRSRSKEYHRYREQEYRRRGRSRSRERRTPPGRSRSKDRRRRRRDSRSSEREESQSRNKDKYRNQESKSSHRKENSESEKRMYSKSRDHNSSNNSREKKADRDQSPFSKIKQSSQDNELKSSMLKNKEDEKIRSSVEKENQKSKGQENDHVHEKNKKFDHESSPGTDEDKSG
Experimental: as §1, with “For IC50 determinations, the reaction curves were fitted to one-phase exponential association regressions to obtain first-order rate constants.” left out

[2] = test system: CCl4-induced liver fibrosis in C57BL/6 mice; experiment: Carbon tetrachloride mouse model of liver fibrosis; type: in vivo; settings: 50 mg/kg per day oral for 6 weeks, vs vehicle
Experimental: Carbon tetrachloride (CCl4)–induced liver fibrosis was conducted in C57BL/6J male mice starting at 7 weeks of age. Mice were injected intraperitoneally twice per week with 0.5–0.75 ml/kg CCL4 (289116; Sigma-Aldrich) and corn oil (0.05 ml total dose per mouse) for 6 weeks. CRV431, obeticholic acid (OCA, HY-12222; MedChemExpress), and vehicle were administered by daily oral gavage for the entire duration of the study. CRV431 and OCA were dissolved in a self-microemulsifying drug vehicle ([Trepanier et al., 2018]), and then diluted with PBS. CRV431 was administered at 50 mg/kg per day, and OCA was administered at 10 mg/kg per day.
Blood and livers were collected at the end of the NASH and CCl4 studies. In some studies, serum or plasma was isolated from freshly-collected blood, whereas in other studies blood was frozen for later analysis of CRV431 concentration. Livers were immersion-fixed in zinc-formalin and paraffin-embedded for histologic processing. Liver sections were stained with hematoxylin and eosin for assessment of inflammation, ballooning, and steatosis, and with sirius red for assessment of collagen I and III (fibrosis). Sirius red staining was quantified by blinded analysis in one section per liver using ImageJ software. […]

[3] = test system: NASH model in C57BL/6 mice; experiment: Mouse NASH model (streptozotocin plus high-fat diet); type: in vivo; set-up: NAS score / Steatosis score / Inflammation score / Ballooning score: scale not given here
Experimental: NASH was initiated in 2-day-old C57BL/6J male mice by intraperitoneal injection with 200 μg streptozotocin (S0130; Sigma-Aldrich) to disrupt pancreatic β cells, induce diabetes, and promote adiposity in the liver. Mice were weaned at 3 weeks of age and begun on a high-fat diet with 60%kcal fat (D12492N; Research Diets) for the duration of the studies. Additionally, mice with a regular diet (D12450KN; Research Diets) and without streptozotocin were included as negative controls. CRV431 was dissolved in a self-microemulsifying drug vehicle and then diluted with PBS and administered daily by oral gavage at 50 mg/kg per day. The start time and duration of vehicle and CRV431 treatments varied depending on the study.
Blood and livers were collected at the end of the NASH and CCl4 studies. In some studies, serum or plasma was isolated from freshly-collected blood, whereas in other studies blood was frozen for later analysis of CRV431 concentration. Livers were immersion-fixed in zinc-formalin and paraffin-embedded for histologic processing. Liver sections were stained with hematoxylin and eosin for assessment of inflammation, ballooning, and steatosis, and with sirius red for assessment of collagen I and III (fibrosis). Sirius red staining was quantified by blinded analysis in one section per liver using ImageJ software. Scoring of steatosis, ballooning, and inflammation (sum of portal and lobular inflammation) in liver sections was based on criteria and training by a board-certified pathologist.
Liver tumors were quantified in freshly collected livers at sacrifice in one NASH study ending at 30 weeks of age. Liver tumors were counted and their diameters measured with a ruler and classified as small (>0.1 cm diameter, but not exceeding 0.5 cm), medium (0.5–1 cm diameter), or large (>1 cm diameter).

P-gp = P-gp (Homo sapiens, UniProt P08183)
P-gp, sequence (P08183 whole entry): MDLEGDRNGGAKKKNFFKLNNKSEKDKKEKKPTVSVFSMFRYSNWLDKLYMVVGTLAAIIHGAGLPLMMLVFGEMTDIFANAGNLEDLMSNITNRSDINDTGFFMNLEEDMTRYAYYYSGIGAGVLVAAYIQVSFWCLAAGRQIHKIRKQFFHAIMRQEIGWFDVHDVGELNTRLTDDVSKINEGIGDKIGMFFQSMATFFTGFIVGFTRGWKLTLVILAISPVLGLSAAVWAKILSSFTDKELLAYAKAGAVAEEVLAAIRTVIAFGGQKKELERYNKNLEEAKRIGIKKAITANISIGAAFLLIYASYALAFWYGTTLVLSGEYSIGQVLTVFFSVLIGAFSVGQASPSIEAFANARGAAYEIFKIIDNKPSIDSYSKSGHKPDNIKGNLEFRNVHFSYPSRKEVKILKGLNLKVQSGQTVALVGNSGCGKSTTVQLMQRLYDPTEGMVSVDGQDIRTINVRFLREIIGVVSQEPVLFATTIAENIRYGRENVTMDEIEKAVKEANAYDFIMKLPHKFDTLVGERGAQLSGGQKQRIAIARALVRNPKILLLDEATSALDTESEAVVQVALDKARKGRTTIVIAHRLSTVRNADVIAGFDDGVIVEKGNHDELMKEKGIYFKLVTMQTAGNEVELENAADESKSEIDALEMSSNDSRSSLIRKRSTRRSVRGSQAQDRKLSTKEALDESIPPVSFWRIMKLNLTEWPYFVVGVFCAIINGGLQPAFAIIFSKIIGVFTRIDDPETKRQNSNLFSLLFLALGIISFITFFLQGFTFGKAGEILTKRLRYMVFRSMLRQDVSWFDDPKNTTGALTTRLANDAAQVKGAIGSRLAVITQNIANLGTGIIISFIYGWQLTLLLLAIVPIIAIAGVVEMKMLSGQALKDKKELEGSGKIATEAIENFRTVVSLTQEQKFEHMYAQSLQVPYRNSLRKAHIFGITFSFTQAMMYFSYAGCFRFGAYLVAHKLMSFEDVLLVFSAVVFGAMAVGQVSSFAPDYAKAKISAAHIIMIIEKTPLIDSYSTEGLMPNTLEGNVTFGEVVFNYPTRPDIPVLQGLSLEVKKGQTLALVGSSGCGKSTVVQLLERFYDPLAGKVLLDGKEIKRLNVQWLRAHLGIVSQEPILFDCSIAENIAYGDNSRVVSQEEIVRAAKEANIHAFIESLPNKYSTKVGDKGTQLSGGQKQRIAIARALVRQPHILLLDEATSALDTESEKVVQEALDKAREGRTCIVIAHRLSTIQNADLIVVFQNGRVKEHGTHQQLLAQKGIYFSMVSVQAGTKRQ
Experimental: (§2) Briefly, PGP and breast cancer resistance protein inhibition was assessed by measuring the bidirectional transport of substrates across cell monolayers in transwell culture plates. Efflux ratios were represented as (apical-to-basal flux)/(basal-to-apical flux), and efflux ratios were plotted relative to CRV431 concentration to derive IC50 values. Bile salt export pump (BSEP) and multidrug resistance protein (MRP)1 inhibition was assessed by measuring substrate accumulation in membrane vesicles prepared from insect Sf9 cells and recombinantly expressing BSEP and MRP2 (Genomembrane). Inhibition of all other transporters was assessed by measuring substrate accumulation in cells recombinantly expressing the transporter. Known inhibitors of each transporter were used as positive controls for the assays. […] Specific, ATP-dependent uptake was determined by subtracting uptake in negative control vesicles and cells not expressing the transporters, and secondly by subtracting uptake in the absence of ATP in the assays. Specific, ATP-dependent uptake was plotted as a function of CRV431 concentrations and fitted to nonlinear regressions to obtain IC50 values.

MRP2 = MRP2 (Homo sapiens, UniProt Q92887)
MRP2, sequence (Q92887 whole entry): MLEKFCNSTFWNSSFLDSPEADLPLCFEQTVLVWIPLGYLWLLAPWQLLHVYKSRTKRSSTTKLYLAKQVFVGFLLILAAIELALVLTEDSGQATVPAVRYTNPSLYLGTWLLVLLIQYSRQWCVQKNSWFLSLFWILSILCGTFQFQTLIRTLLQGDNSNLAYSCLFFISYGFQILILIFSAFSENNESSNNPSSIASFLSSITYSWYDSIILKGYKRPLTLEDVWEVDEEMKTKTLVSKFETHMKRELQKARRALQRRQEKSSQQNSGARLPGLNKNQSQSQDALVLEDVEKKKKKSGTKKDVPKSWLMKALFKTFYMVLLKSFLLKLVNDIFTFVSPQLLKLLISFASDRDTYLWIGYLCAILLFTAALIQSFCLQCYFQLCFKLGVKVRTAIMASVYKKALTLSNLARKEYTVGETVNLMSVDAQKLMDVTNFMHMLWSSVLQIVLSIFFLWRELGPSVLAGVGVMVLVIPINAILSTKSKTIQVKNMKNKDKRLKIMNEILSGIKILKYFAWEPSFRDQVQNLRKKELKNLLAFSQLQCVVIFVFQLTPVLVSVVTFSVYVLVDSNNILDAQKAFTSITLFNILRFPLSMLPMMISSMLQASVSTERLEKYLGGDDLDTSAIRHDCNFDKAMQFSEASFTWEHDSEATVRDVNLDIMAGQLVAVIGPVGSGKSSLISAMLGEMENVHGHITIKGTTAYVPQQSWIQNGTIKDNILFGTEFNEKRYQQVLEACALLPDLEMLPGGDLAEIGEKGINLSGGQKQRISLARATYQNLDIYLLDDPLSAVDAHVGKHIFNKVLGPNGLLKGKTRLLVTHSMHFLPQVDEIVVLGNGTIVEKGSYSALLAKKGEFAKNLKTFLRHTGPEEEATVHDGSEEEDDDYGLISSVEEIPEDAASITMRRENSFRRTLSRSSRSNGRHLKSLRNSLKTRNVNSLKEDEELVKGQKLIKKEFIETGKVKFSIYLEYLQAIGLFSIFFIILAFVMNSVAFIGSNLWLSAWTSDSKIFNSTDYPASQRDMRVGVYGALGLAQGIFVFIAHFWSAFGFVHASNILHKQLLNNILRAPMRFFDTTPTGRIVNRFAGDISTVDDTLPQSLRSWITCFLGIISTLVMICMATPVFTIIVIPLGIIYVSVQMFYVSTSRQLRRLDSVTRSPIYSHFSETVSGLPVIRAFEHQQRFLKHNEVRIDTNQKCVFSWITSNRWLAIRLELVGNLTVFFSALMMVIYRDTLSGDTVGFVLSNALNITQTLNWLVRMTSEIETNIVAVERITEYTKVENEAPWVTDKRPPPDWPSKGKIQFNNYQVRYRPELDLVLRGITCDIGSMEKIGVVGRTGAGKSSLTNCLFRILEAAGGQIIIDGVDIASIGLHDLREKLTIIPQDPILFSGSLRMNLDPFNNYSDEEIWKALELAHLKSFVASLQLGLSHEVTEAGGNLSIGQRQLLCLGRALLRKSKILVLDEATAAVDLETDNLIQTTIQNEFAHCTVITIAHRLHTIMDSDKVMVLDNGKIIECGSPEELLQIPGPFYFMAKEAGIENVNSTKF
Experimental: Bile salt export pump (BSEP) and multidrug resistance protein (MRP)1 inhibition was assessed by measuring substrate accumulation in membrane vesicles prepared from insect Sf9 cells and recombinantly expressing BSEP and MRP2 (Genomembrane). Inhibition of all other transporters was assessed by measuring substrate accumulation in cells recombinantly expressing the transporter. Known inhibitors of each transporter were used as positive controls for the assays. […] Specific, ATP-dependent uptake was determined by subtracting uptake in negative control vesicles and cells not expressing the transporters, and secondly by subtracting uptake in the absence of ATP in the assays. Specific, ATP-dependent uptake was plotted as a function of CRV431 concentrations and fitted to nonlinear regressions to obtain IC50 values.

OATP1B3 = OATP1B3 (Homo sapiens, UniProt Q9NPD5)
OATP1B3, sequence (Q9NPD5 whole entry): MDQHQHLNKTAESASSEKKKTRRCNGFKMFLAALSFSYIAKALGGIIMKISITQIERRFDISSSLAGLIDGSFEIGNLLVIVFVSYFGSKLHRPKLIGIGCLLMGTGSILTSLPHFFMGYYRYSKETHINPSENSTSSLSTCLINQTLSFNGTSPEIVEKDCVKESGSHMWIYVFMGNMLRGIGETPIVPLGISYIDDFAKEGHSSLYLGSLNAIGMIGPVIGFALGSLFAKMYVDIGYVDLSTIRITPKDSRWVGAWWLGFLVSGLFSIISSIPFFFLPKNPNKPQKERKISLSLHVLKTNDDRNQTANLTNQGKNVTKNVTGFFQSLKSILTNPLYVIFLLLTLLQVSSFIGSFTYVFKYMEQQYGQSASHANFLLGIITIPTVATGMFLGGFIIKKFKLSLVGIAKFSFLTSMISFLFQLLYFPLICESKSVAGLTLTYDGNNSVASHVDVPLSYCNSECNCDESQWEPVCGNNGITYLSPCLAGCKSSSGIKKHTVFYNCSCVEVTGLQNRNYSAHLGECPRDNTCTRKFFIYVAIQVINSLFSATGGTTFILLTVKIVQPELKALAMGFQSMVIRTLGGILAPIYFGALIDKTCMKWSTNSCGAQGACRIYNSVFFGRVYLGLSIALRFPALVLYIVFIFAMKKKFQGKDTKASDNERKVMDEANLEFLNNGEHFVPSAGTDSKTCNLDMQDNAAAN
Experimental: as §2

[4] = rat, in vivo, po
Text: Male and female Sprague–Dawley rats and male C57BL/6 mice from the carbon tetrachloride and NASH studies were used to evaluate CRV431 pharmacokinetics and distribution. […] Terminal whole blood and livers were collected and frozen until drug extraction. Liver samples were homogenized in PBS or 1% formic acid (0.1 g–0.4 g liver sample per ml solvent) with bead-based homogenizers (TissueLyser or Beadruptor). […] Sample and standard compounds were extracted from blood and liver homogenates using a zinc sulfate/methanol precipitation method and quantified by liquid chromatography–electrospray ionization–mass spectrometry, as previously described ([Trepanier et al., 2018]). Liver CRV431 concentrations were normalized to the masses of the liver samples.
CRV431 pharmacokinetics in rats. […] Whole–blood concentrations of the two compounds were determined at the indicated time points. […] Means and S.D. shown.

[5] = CRV431 blood and liver exposures across mouse and rat studies; settings: daily oral dosing, mice and rats
Text: Male and female Sprague–Dawley rats and male C57BL/6 mice from the carbon tetrachloride and NASH studies were used to evaluate CRV431 pharmacokinetics and distribution. […] Terminal whole blood and livers were collected and frozen until drug extraction. Liver samples were homogenized in PBS or 1% formic acid (0.1 g–0.4 g liver sample per ml solvent) with bead-based homogenizers (TissueLyser or Beadruptor). […] Liver CRV431 concentrations were normalized to the masses of the liver samples.

[6] = Week 3–14 Treatment, 50 mg/kg per day oral
[7] = Week 8–14 Treatment, 50 mg/kg per day oral
[8] = Week 20–30 Treatment, 50 mg/kg per day oral

SMILES: CC[C@@H]1NC(=O)[C@H]([C@H](O)[C@H](C)CCCCCCNC(C)=O)N(C)C(=O)[C@H](C(C)C)N(C)C(=O)[C@H](CC(C)C)N(C)C(=O)[C@H](CC(C)C)N(C)C(=O)[C@@H](C)NC(=O)[C@H](C)NC(=O)[C@H](CC(C)C)N(C)C(=O)[C@H](C(C)C)NC(=O)[C@H](CC(C)C)N(C)C(=O)[C@@H](C)N(C)C1=O [CRV431] (cyclo(A[dA][NMeL][NMeL][NMeV][NMeThr(4R-Me,4-(CH2)6NHAc)][Abu][dNMeA][NMeL]V[NMeL]))
- Maximum enzyme velocity (Vmax) in the presence of compound (recombinant Cyp A (PPIA)): 5.3 µmol/s per nanomole Cyp A
- IC50 Fold Difference (recombinant Cyp A (PPIA); CsA IC50 vs CRV431 IC50, PPIA): 10.2
- IC50 (recombinant Cyp A (PPIA); PPIA (Cyp A), one peptide substrate concentration): 2.5 nM
- Ki (recombinant Cyp A (PPIA); competitive enzyme inhibition model, multiple substrate concentrations, 4°C, read-out: Ki toward cyclophilin A): 1.3 nM
- fold higher potency of CRV431 vs CsA (Ki) (recombinant Cyp A (PPIA); ratio of Ki values): 13 fold
- IC50 Fold Difference (recombinant Cyp B (PPIB); CsA IC50 vs CRV431 IC50, PPIB): 3.7
- IC50 (recombinant Cyp B (PPIB); PPIB (Cyp B), one peptide substrate concentration): 3.1 nM
- IC50 (recombinant Cyp D (PPIF)): 2.8 nM
- IC50 Fold Difference (recombinant Cyp D (PPIF); CsA IC50 vs CRV431 IC50, PPIF): 3.6
- IC50 Fold Difference ([1]; CsA IC50 vs CRV431 IC50, PPIG): 3.8
- IC50 ([1]; PPIG (Cyp G), one peptide substrate concentration): 7.3 nM
- lowering of the amount of sirius red staining [2]: 43%
- Ballooning score [3, 6]: 0.9 ± 0.6
- Blood glucose [3, 6]: 319 ± 79
- Body weight [3, 6]: 33.5 ± 5.2 (P < 0.05)
- Inflammation score [3, 6]: 1.5 ± 0.7
- Liver weight [3, 6]: 1.28 ± 0.28
- NAS score [3, 6]: 3.7 ± 2.2 (P < 0.05)
- Sirius red % [3, 6]: 1.96 ± 0.72 (P < 0.05) %
- Steatosis score [3, 6]: 1.3 ± 1.1
- Ballooning score [3, 7]: 1.8 ± 0.5
- Blood glucose [3, 7]: 463 ± 143
- Body weight [3, 7]: 26.1 ± 5.1
- Inflammation score [3, 7]: 2.4 ± 0.7
- Liver weight [3, 7]: 1.35 ± 0.28
- NAS score [3, 7]: 6.1 ± 1.1
- Sirius red % [3, 7]: 1.02 ± 0.48 (P < 0.05) %
- Steatosis score [3, 7]: 2.0 ± 0.5
- Blood glucose [3, 8]: 405 ± 134
- Body weight [3, 8]: 41.6 ± 8.9
- Liver weight [3, 8]: 3.04 ± 1.19 (P < 0.05)
- Sirius red % [3, 8]: 1.62 ± 0.57 (P < 0.05) %
- Tumor number [3, 8]: 4.5 ± 4.4
- Tumor score ([3]; Week 20–30 Treatment, 50 mg/kg per day oral, 0–7 scale): 2.25 ± 2.0 (P < 0.05)
- reduction in the number and size of liver tumors ([3]; late, oncogenic stage of the NASH model (abstract)): 50%
- fibrosis levels lower after CRV431 treatment compared with vehicle treatment ([3]; three NASH model studies, 50 mg/kg per day oral, sirius red): 37%–46%
- livers lacking tumors ([3]; treatment from weeks 20 to 30): 2 of 10
- decrease of tumor burden (score of tumor number and size) ([3]; treatment from weeks 20 to 30, vs vehicle): 52%
- IC50 (P-gp): > 50000 nM
- IC50 (MRP2): 20700 nM
- IC50 (OATP1B3): 600 nM
- half-life (in words) [4]: relatively long CRV431 half-life that exceeded that of CsA
- fold higher levels in liver than in the blood [5]: 5- to 15 fold
